According to the NIST ThermoML archive (doi:10.1016/j.tca.2012.02.005):
± gives the expanded uncertainty stated by the source.

test: activity coefficient (dimensionless); of the first substance listed, at infinite dilution; xn = mol fraction of the nth substance listed; conditions: 298.15 K; 101 kPa; Liquid; Chromatography; x1 = 0

| activity coefficient | SMILES |
| --- | --- |
| 0.46 ± 0.07 | CCCCN [1-butanamine] + CO |
| 13.7 ± 2.3 | CCCCCCN [1-hexanamine] + CO |
| 16.2 ± 3.1 | CCCCCCN [1-hexanamine] + c1ccccc1 |
| 0.75 ± 0.1 | CCC(C)N (centres undefined) [2-butanamine] + CO |
| 1.15 ± 0.17 | CCC(C)N (centres undefined) [2-butanamine] + c1ccccc1 |
| 0.91 ± 0.12 | CCCNCCC [dipropylamine] + CO |
| 1.48 ± 0.15 | CCCNCCC [dipropylamine] + c1ccccc1 |
| 1.28 ± 0.1 | CCN(CC)CC [triethylamine] + c1ccccc1 |
| 1.01 | CCCN(CCC)CCC [tripropylamine] + CCCCCCCCCCCCCCCC |
| 8.79 ± 1.6 | CCCN(CCC)CCC [tripropylamine] + CO |
| 2.79 ± 0.62 | CCCN(CCC)CCC [tripropylamine] + c1ccccc1 |

More lines, now with the values behind:

| SMILES | activity coefficient |
| --- | --- |
| Cc1cccc(C)n1 [2,6-dimethylpyridine] + CO | 0.94 ± 0.07 |
| CC(C)(C)N [2-methyl-2-propanamine] + CO | 0.25 ± 0.05 |
| CC(C)(C)N [2-methyl-2-propanamine] + c1ccccc1 | 1.32 ± 0.21 |
| Cc1ccccn1 [2-methylpyridine] + CO | 0.75 ± 0.07 |
| Cc1cccnc1 [3-methylpyridine] + CO | 0.82 ± 0.07 |
| Cc1cccnc1 [3-methylpyridine] + c1ccccc1 | 0.96 ± 0.12 |
| Cc1ccncc1 [4-methylpyridine] + CO | 1 ± 0.12 |
| NC1CCCCC1 [cyclohexylamine] + CO | 4.81 ± 0.47 |
| NC1CCCCC1 [cyclohexylamine] + c1ccccc1 | 6.43 ± 1 |
| CCNCC [diethylamine] + CO | 0.33 ± 0.05 |
| CO [methanol] + C1CCNCC1 | 0.43 ± 0.03 |
| CO [methanol] + CC(C)(C)N | 0.29 ± 0.05 |
| CO [methanol] + CCC(C)N | 0.38 ± 0.05 |
| CO [methanol] + CCCCCCN | 0.38 ± 0.05 |
| CO [methanol] + CCCCN | 0.35 ± 0.07 |
| CO [methanol] + CCCNCCC | 0.69 ± 0.05 |
| CO [methanol] + CCNCC | 0.51 ± 0.03 |
| CO [methanol] + Cc1cccc(C)n1 | 0.61 ± 0.1 |
| CO [methanol] + Cc1ccccn1 | 0.79 ± 0.1 |
| CO [methanol] + Cc1cccnc1 | 0.94 ± 0.12 |
| CO [methanol] + Cc1ccncc1 | 0.68 ± 0.1 |
| CO [methanol] + NC1CCCCC1 | 0.33 ± 0.03 |
| c1ccncc1 [pyridine] + CO | 1.2 ± 0.19 |
